According to ChEMBL document CHEMBL1156829 (Proc Natl Acad Sci U S A, 2008):

Experiments:
[1] = NOVARTIS: Cytotoxicity against human hepatocellular carcinoma cell line (Huh7); type: toxicity, cell-based, Huh-7; details: Huh7 cells (hepatocellular carcinoma cell line)
[2] = system: Plasmodium falciparum; experiment: NOVARTIS: Inhibition of Plasmodium falciparum 3D7 (drug-susceptible) proliferation in erythrocyte-based infection assay; type: functional, organism-based
[3] = system: Plasmodium falciparum; experiment: NOVARTIS: Inhibition of Plasmodium falciparum W2 (drug-resistant) proliferation in erythrocyte-based infection assay; type: functional, organism-based; details: read-out: EC50

SMILES	CC50 [1] [nM]	EC50 ([2]; Plasmodium falciparum, 3D7) [nM]	EC50 ([3]; Plasmodium falciparum, W2) [nM]	EC50 [2] [nM]	EC50 [3] [nM]
O=C(Cn1c(=O)oc2cc(Cl)ccc21)c1ccccc1	28400	> 12500	4500		
CCCCCCc1ccc(C(=O)NCCCCNc2ccnc3cc(Cl)ccc23)cc1	> 10800	241	169		
Cc1n[nH]c2c1C(c1ccc([N+](=O)[O-])cc1)N(c1ccc(Br)cc1)C2=O (stereo not given)	> 100000	> 12500	> 6360		
O=[N+]([O-])c1ccc(N2CCN(C(=S)Nc3ccccc3)CC2)cc1	> 100000	6010	1640		
Cc1ccc(S(=O)(=O)N2CCN(C(=O)c3ccccc3)C2c2ccccc2)cc1 (stereo not given)	10600	> 12500	6290		
O=C(Nc1ccc(Br)cn1)c1ccc(Oc2cc(Oc3cccc(Cl)c3)cc([N+](=O)[O-])c2)cc1	> 10000	> 1250	> 1180		
Cc1cc(N)c2ccccc2[n+]1CCCCCCCCCC[n+]1c(C)cc(N)c2ccccc21 [DEQUALINIUM CHLORIDE]	31000	61.4	19.7		
COc1cc2ccccc2cc1C(=O)NCCOC12CC3CC(CC(C3)C1)C2	> 100000	3500	1140		
COc1ccc(N2C(=O)C3C(C2=O)C2(c4ccccc4)C(=O)C3(c3ccccc3)C(c3ccc4c(c3)OCO4)=C2c2ccc3c(c2)OCO3)c([N+](=O)[O-])c1 (stereo not given)	> 100000	1160	938		
Cc1nc(-c2nc3c(s2)CN(C(=O)c2ccncc2)CC3)cs1	> 10000	163	144		
O=C(Cn1c2ccccc2c(=O)c2cc(Cl)ccc21)Nc1cccc(C(F)(F)F)c1	> 10000	> 1360	1650		
CCCCCCCCC(=O)Nc1c(C)cccc1C	> 10000	> 1250	26.7		
COc1ccccc1C1SCCN1C(=O)Nc1ccc(Cl)c(Cl)c1 (stereo not given)	> 10000	> 1020	2260		
CC=Cc1n(C)c2ccccc2[n+]1C	> 100000	613	129		
FC(F)(F)c1cccc(NC(=S)N2CCCC2c2ccccc2C(F)(F)F)c1 (stereo not given)	> 10000	214	< 13		
Cc1ccc(NC(=S)NCCO)cc1C	> 100000	1810	1020		
O=C(Nc1ccc(-c2cn3ccsc3n2)cc1)c1ccc(S(=O)(=O)N2CCCCCC2)cc1	17600	634	1230		
O=C(Nc1ccc(O)cc1)c1cccc(S(=O)(=O)N2CCCCC2)c1	> 100000	6910	621		
COc1ccc(CCNc2ncnc3c2[nH]c2ccccc23)cc1	24900	299	401		
CCN1CC=C(c2c[nH]c3ccccc23)CC1	> 10000	885	339		
c1ccc(CSc2nnc3c(n2)[nH]c2ccccc23)cc1	> 10000	1300	1320	> 1060	> 748
COc1ccc(CCN2CCC(Nc3nc4ccccc4n3Cc3ccc(F)cc3)CC2)cc1 [ASTEMIZOLE]	20900	447	711		

SMILES	CC50 [1] [nM]	EC50 ([2]; Plasmodium falciparum, 3D7) [nM]	EC50 ([3]; Plasmodium falciparum, W2) [nM]	EC50 [2] [nM]	EC50 [3] [nM]
C=CCNC(=O)c1ccc2c(c1)N=C(CC(C)c1ccccc1)N(CCCN1CCCC1=O)C2 (stereo not given)	> 10000	> 1250	26.7		
COc1cc(C(=O)Nc2ccc3nc4n(c(=O)c3c2)CCCCC4)cc(OC)c1OC	> 10000	> 589	1880		
O=C(Nc1ccc(-n2cnnn2)cc1)C1CCN(Cc2cc3ccccc3o2)CC1	> 61900	198	416		
CSc1c(C(=O)Nc2ccc(Br)cc2)ccc2c1C(=O)c1ccccc1C2=O	> 10000	> 1250	> 640		
CC1(C)N=C(N)N=C(N)N1c1ccc(Br)cc1	> 10000	0.592	533		
CC[C@]1(C2OC(C3O[C@](O)(CO)[C@@H](C)C[C@H]3C)C[C@H]2C)CCC([C@@]2(C)CC[C@@]3(C[C@@H](O)[C@H](C)C([C@H](C)[C@H](OC)C(C)C(=O)O)O3)O2)O1 (stereo not given in full)	1290	2.79	< 0.868		
O=C(NCc1ccc2c(c1)OCO2)C1CNCC1c1ccc(C(F)(F)F)cc1 (stereo not given)	54300	325	362		
CCCCCN(C(=O)c1ccc(C)cc1)C(C)c1nc2ccccc2c(=O)n1-c1ccccc1CC (stereo not given)	> 10000	> 1620	895		
Cc1c(-c2ccccc2)c2ccccc2n1CCc1ccc(C)[n+](C)c1	> 100000	647	690		
CCOc1ccccc1-n1c(N)c(C(=O)Nc2ccc(F)cc2)sc1=S	> 100000	968	230		
c1ccc(-c2nc(-c3ccc4cccnc4c3)n(-n3c(-c4ccc5cccnc5c4)nc(-c4ccccc4)c3-c3ccccc3)c2-c2ccccc2)cc1	29100	3640	1500		
O=C(CC1SC(=Nc2ccccc2)NC1=O)Nc1cc(Cl)ccc1Cl (stereo not given)	> 100000	> 12500	> 7080		
O=C(NCCCCNc1ccnc2cc(Cl)ccc12)c1cc(C(F)(F)F)cc(C(F)(F)F)c1	> 10000	642	766		
OC(Cn1cnc(-c2ccccc2)c1-c1ccccc1)Cn1c2ccc(Br)cc2c2cc(Br)ccc21 (stereo not given)	> 100000	952	53.2		
N=c1n(Cc2ccccc2)c2ccccc2n1CC(O)c1ccc(Cl)c(Cl)c1 (stereo not given)	6590	214	43.6		
CCOC(=O)c1ccc(NC(=O)CSc2nc(NCc3ccccc3)c3ccccc3n2)cc1	> 10000	> 1140	> 836		
CN1CCc2c(sc3nc(SCc4ccc(Cl)cc4)n(-c4cccc(Cl)c4)c(=O)c23)C1	> 100000	1050	363		
CCCCOc1c2ccccc2nc2ccccc12	> 10000	> 1250	> 592		
COc1ccc([N+](=O)[O-])cc1-c1ccc(C=C(C#N)c2nn(CCO)c(N)c2C#N)o1	> 100000	> 12500	2290		
O=c1c2c3c(sc2ncn1CC1CCCCC1)CC(NCc1cccnc1)CC3 (stereo not given)	> 10000	> 1040	> 1250		
CCn1c(SCCCCNC(=O)c2cc([N+](=O)[O-])cc([N+](=O)[O-])c2)nc(-c2ccc(C)cc2)c1-c1ccc(C)cc1	> 10000	679	73.1		
Cc1nc(-c2cnccc2C(F)(F)F)sc1C(=O)NN	> 100000	> 11000	1390		

SMILES	CC50 [1] [nM]	EC50 ([2]; Plasmodium falciparum, 3D7) [nM]	EC50 ([3]; Plasmodium falciparum, W2) [nM]	EC50 [2] [nM]	EC50 [3] [nM]
CCC(C(=O)Oc1ccccc1-c1nc2ccccn2c1NC(C)(C)CC(C)(C)C)c1ccccc1 (stereo not given)	> 10000	685	32.9		
O=C(CCC1CCCC1)NCCCCNc1ccnc2cc(Cl)ccc12	2270	486	175		
Cc1ccn2c(NC(C)(C)CC(C)(C)C)c(-c3ccccc3OC(=O)c3ccccc3C)nc2c1	> 10000	757	< 9.03		
CN(C)CCNC(=O)COc1ccc(-c2nc3ccccc3s2)cc1CN(C)C	> 10000	622	557		
Oc1ccc(-c2ccc(F)cc2)cc1CNCCN1CCOCC1	> 10000	901	681		
Oc1ccccc1Nc1nc(NCc2ccccc2)c2ccccc2n1	12500	277	1120		
COc1cc(CN2CC3CC(C2)c2cccc(=O)n2C3)ccc1O (stereo not given)	> 100000	> 12500	1210		
COc1ccccc1NC(=O)N(CCC(C)C)C(C)c1nc2ccccc2c(=O)n1-c1ccccc1Cl (stereo not given)	> 10000	817	< 25.8		
O[C@@H](c1cc(C(F)(F)F)nc2c(C(F)(F)F)cccc12)[C@H]1CCCCN1	> 6250	51.7	2.37		
Cc1ccc(C(=O)N(CCc2ccccc2)C(C)c2nc3ccccc3c(=O)n2-c2cccc(Cl)c2C)cc1[N+](=O)[O-] (stereo not given)	> 10000	> 1620	887		
CC(C)NC(=O)[C@@H]1C[C@@H](NCc2cccnc2)CN1Cc1ccc2ccccc2c1	> 100000	> 10900	3310		
C=CCn1c(SCC(=O)c2cc(C)n(-c3ccccc3F)c2C)nc2sc3c(c2c1=O)CCCC3	> 10000	> 1250	> 180		
Cc1ccc(Cn2c(N3CCC(C(=O)NCc4ccccn4)CC3)nc3ccccc32)cc1	> 100000	484	185		
CC1(C)CC(=O)C2=C(C1)NC(=O)CC2c1ccc(C(C)(C)C)cc1 (stereo not given)	> 10000	> 1250	> 1010		
COC(=O)c1c(NC(=O)c2c(-c3ccccc3)noc2C)sc2c1CCC2	> 100000	2980	1330		
Cc1ccc(Sc2cc(C(=O)NCc3ccco3)c3ccccc3n2)cc1	> 100000	> 6980	6580		
CC(C)C(=O)NC(Nc1cccc([N+](=O)[O-])c1)C(Cl)(Cl)Cl (stereo not given)	> 100000	1560	1200		
CCN1CCCC1CNc1ncnc2c1[nH]c1ccc(C)cc12 (stereo not given)	21000	269	138		
CN1CCCC1CCNc1ncc(C(=O)NCc2ccccc2)c(NCC2CCCCC2)n1 (stereo not given)	> 10000	54.4	100		
COc1ccc2cc(C(C)=NO)ccc2c1	> 100000	> 12500	> 5970		
C=C[C@H]1CN2CC[C@H]1C[C@H]2[C@H](OC(=O)CCC)c1ccnc2ccccc12	> 10000	335	286		
CCN(CC)CCCC(C)Nc1cc(/C=C/c2ccccc2Cl)nc2cc(Cl)ccc12 (stereo not given) [AMINOQUINOL]	> 10000	178	283		
